Measurements taken from the NIST ThermoML archive (doi:10.1016/j.jct.2014.09.022).

Columns and labels:
[1] = mn = molality of the nth substance listed, in mol/kg; conditions: 298.15 K, 100 kPa, Liquid; for viscosity: Capillary tube (Ostwald / Ubbelohde) method; for mass density: Vibrating tube method
[2] = refractive index (Na D-line) (dimensionless); mn = molality of the nth substance listed, in mol/kg; conditions: 298.15 K, 100 kPa, Liquid, Standard Abbe refractometry
[3] = 298.15 K, 100 kPa, Liquid
[4] = refractive index (Na D-line) (dimensionless); conditions: 298.15 K; 100 kPa; Liquid; Standard Abbe refractometry

CCCCCCn1cc[n+](C)c1.[Cl-] [1-hexyl-3-methylimidazolium chloride] + CC(=O)N(C)C
Conditions	mass density, [1] [kg/m3]	refractive index, [2]	viscosity, [1] [mPa·s]
m1 = 0.0226	936.94	1.4283	1.029
m1 = 0.0468	937.6	1.429	1.042
m1 = 0.06	937.96	1.4295	1.057
m1 = 0.0797	938.48	1.4297	1.072
m1 = 0.1002	939.02	1.43	1.087
m1 = 0.1216	939.55	1.4303	1.106
m1 = 0.141	940.04	1.4307	1.123
m1 = 0.1621	940.56	1.431	1.129
m1 = 0.1781	940.95	1.4312	1.137
m1 = 0.2012	941.49	1.432	1.142

C(=NCCN=Cc1ccccn1)c1ccccn1 [N,N'-bis(2-pyridinylmethylene)-1,2-ethanediamine] + CC(=O)N(C)C
Conditions	mass density, [1] [kg/m3]	refractive index, [2]	viscosity, [1] [mPa·s]
m1 = 0.0471	937.73	1.4291	1.035
m1 = 0.091	939.12	1.43	1.069
m1 = 0.1327	940.31	1.4317	1.082
m1 = 0.1768	941.81	1.433	1.1

CC(=O)N(C)C [N,N-dimethylethanamide]
[3]
Conditions	mass density [kg/m3]	viscosity [mPa·s]
Capillary tube (Ostwald / Ubbelohde) method	–	0.989
Vibrating tube method	936.31	–

Conditions	refractive index
[4]	1.4278
